Laboratory results reported in patent US20220113299A1, “METHOD OF DYNAMICS ANALYSIS FOR COMPOUND IN CELL” (Hitachi High-Tech Corporation, priority 2019, published 2022).

Tested on: hepatocytes
Assay: kinetic analysis of compound efflux in cultured hepatocytes (Test Sections 1 to 3, fluorescence measurement)
Format: in vitro ADME, rat
Settings: 30 minutes; for ratio of the amount of compound excreted into the bile duct to the totality of compound taken up into the cells (BiRD): (B1-B2)/(C1+C2), EGTA disrupted vs maintained system, 37° C.; for ratio of the amount of compound excreted into the bile duct to the totality of compound taken up into the cells (BiRD) / ratio of the amount of compound excreted via transporter to the amount of compound excreted basolaterally (RexEMTP): pattern 1; for ratio of the amount of compound excreted via transporter to the amount of compound excreted basolaterally (RexEMTP): (B2-B3)/B2, cultured hepatocytes, 37° C. vs 4° C.; for Sup fraction (fraction of the first basolateral efflux), index for tendency to remain or not to remain in the cells: pattern 2: sum of Steps 4, 5 and 6 = 100%, Step 4, 37° C., in %
Method: Hepatocytes were prepared by in-situ collagenase perfusion method. The details are as follows. A rat (5-6 week-old) is anesthetized with pentobarbital and undergoes laparotomy, followed by insertion of a catheter into the portal vein and injection of a preperfusion solution (a Ca^2+ and Mg^2+ free Hanks' solution containing glycol ether diaminetetraacetic acid (EGTA)). After checking that blood is sufficiently removed from the liver, the perfusion is stopped. Perfusion is performed with the perfusate being changed to a collagenase solution. In this embodiment, the perfusion operates with a Hanks' solution containing 0.05% collagenase, but the collagenase solution is not limited to this. After checking that the tissue between the cells has been digested by collagenase, the perfusion is stopped. The liver is excised, sliced in a cooled Hanks' solution, and separated into cells by pipetting. Damaged hepatocytes are removed by centrifugation at 500 G for 5 minutes with an isotonic Percoll solution. The viability of the resulting hepatocytes is determined by the trypan blue-exclusion test. Hepatocytes having a viability of 85% or more are used for culture. Here, hepatocytes having a viability of 85% or more are used for culture, but such culture is not necessarily limited to the condition. In addition, the preparation of hepatocytes is not necessarily limited to that by in situ collagenase perfusion method. The hepatocytes to be used are not limited to those derived from a rat, and the strain of rat is not limited. This embodiment employs hepatocytes, but cells are not limited to this.
(3) Cells prepared by a procedure as above are suspended in a medium. The hepatocytes are suspended at a density of 5×10^5 cells/mL in the medium and plated onto a commercially available culture dish coated with collagen. The density upon plating, the medium, and the culture plate 001 are not limited. The culture plate is illustrated in FIG. 7. A 24-well culture plate having 24 culture regions (wells, 002) is here illustrated, but the culture plate is not limited to this, and any of containers in other shapes may be used as long as it can contain predetermined cells. After plating, culture is started under conditions of 5% CO2 and 37° C. using a CO2 incubator. After 18 hours or more, the first medium change is performed. This embodiment employs a FCS-medium, which is a medium resulting from removal of FCS from the medium (10% FCS+) and supplementation with Matrigel, as the medium to be used for culture 18 hours after the plating. However, the medium can be any medium. After this, medium change with the medium (FCS−) is performed every 24 hours. As described later, testing is performed under three different conditions in Step 5 (Test Sections 1, 2, and 3; described in detail in Step 5), three independent culture plates under the same conditions are prepared at this point. In Steps 0 to 4 and Step 5, the same testing operations are performed in all the three test sections.
The culture supernatant of the cells cultured in Step 0 for 4 days is removed, and 400 μL of Hanks' solution is added as a buffer. The cells are incubated at 37° C. for 10 minutes (FIG. 2, Step 1). The type and amount of buffer are not limited.
The buffer is removed, and then 200 μL of […] carboxydichlorofluorescein (CDF; a fluorescent reagent) is fed to the well. The plate is incubated at 37° C. for 30 minutes and then maintained at 4° C. for 5 minutes (FIG. 2, Step 2). The type, concentration, and amount of the reagent are not limited. CDF emits fluorescence and can therefore be easily quantified as a model reagent with a plate reader. The amount of administration, 200 μL, was chosen so that the cells as a whole in the well would be immersed in the reagent. The concentration of CDF may be a concentration conventionally used for a fluorescence assay of cells. This concentration is preferably applied also as an amount of the reagent for the detection with a plate reader. […]

## Rhodamine 123
  ratio of the amount of compound excreted into the bile duct to the totality of compound taken up into the cells (BiRD): 4.92
  ratio of the amount of compound excreted via transporter to the amount of compound excreted basolaterally (RexEMTP): 52.52
  Sup fraction (fraction of the first basolateral efflux), index for tendency to remain or not to remain in the cells: 39.29

## carboxydichlorofluorescein [CDF]
  ratio of the amount of compound excreted into the bile duct to the totality of compound taken up into the cells (BiRD): 18.58
  ratio of the amount of compound excreted via transporter to the amount of compound excreted basolaterally (RexEMTP): 41.08
  Sup fraction (fraction of the first basolateral efflux), index for tendency to remain or not to remain in the cells: 70.82
